Results on six compounds are retold here after patent US20240100000A1, “APPLICATION OF ADRB1 ACTIVE INHIBITOR IN PREPARING PREPARATION OR AS PREPARATION FOR TREATING PSORIASIS” (priority 2022, published 2024).

Structures are written as SMILES. Where a name gives a salt, the structure may show the parent alone.

For one experiment, the system named is skin sympathetic nerve. The experiment is described as follows: Psoriasis model with skin sympathetic nerve ablation (intradermal 6-OHDA before IMQ). Conditions: intradermal injection before IMQ treatment. It counts as in vivo, mice. Here is the method: In the embodiment of the disclosure, the sympathectomy of local skin is as follows. […] of 6-hydroxydopamine (6-OHDA) are dissolved into 100 microliters (μL) of 0.1% ascorbic acid solution (diluted with 0.9% sterile sodium chloride) to prepare a fresh sympathetic nerve ablation solution. Wild-type mice aged 7-8 weeks are selected to shave their back hair, and the exposed skin area is 2 centimeters (cm)×2 cm. Then, the mice are intradermally injected with 100 μL fresh sympathetic nerve ablation solution, controls are injected with an injecting control agent (100 μL of 0.1% ascorbic acid solution).

Experiment [1] has as its system catecholaminergic neurons. Conditions: intraperitoneal injection; cited from earlier work.
Experiment [2] has as its system IMQ-induced mice. The experiment in a line: IMQ-induced psoriasis mouse model smeared with β1-AR antagonist/agonist. It counts as in vivo. How it is done:
In the embodiment of the disclosure, the construction of psoriasis mouse model smeared with β1-AR antagonist/agonist is as follows. 5 μL of β1-AR antagonist/agonist storage solution (40 mg/mL, DMSO solvent) is taken and dissolved in 95 μL of 20% sulfobutylether-beta-cyclodextrin derivative (SBE-β-CD) solution (diluted with sterile sodium chloride) to prepare 2 mg/mL antagonist/agonist diluent. Wild-type mice aged 7-8 weeks are selected to shave their back hair, and the exposed skin area is 2 cm×2 cm. The mice are applied with 100 μL of the antagonist/agonist diluent, and controls are smeared with a smearing control agent (i.e., 5 μL DMSO+95 μL 20% SBE-β-CD solution).

A further experiment has as its system primary γδT cells. The experiment in a line: IL17A/F transcription in primary γδT cells stimulated by IL-23 and ACE/DOB. Conditions: primary γδT cells activated by IL-23; DOB at high concentration. Type of experiment: cell-based, mice. An excerpt:
(§1) In the embodiment of the disclosure, in order to study how to ADRB1 regulates the inflammatory response of γδT cells, high-purity primary γδT cells are isolated from the spleen of mice by magnetic bead sorting kit, and stimulated with ADRB1 agonist and antagonist respectively.

A further experiment deals with NF-κB (P65). The experiment in a line: Activation of NF-κB, AKT, p38, ERK in IL-23-activated primary γδT cells. It counts as cell-based, mice.
Source text: as §1

The test system of another experiment is NF-κB. The experiment in a line: NF-κB phosphorylation in skin of IMQ-induced psoriatic mice. It counts as in vivo.
Experiment [3] deals with γδT-cell deficient mice (Tcrd−/−). The experiment is described as follows: DOB applied to skin of γδT-cell deficient mice (Tcrd−/−). Type of experiment: in vivo. An excerpt:
Combined with the previous results, it is verified that NE in skin is mainly derived from skin sympathetic nerve and mediates the release IL-17 from γδT cells rather than αβT cells through NE-ADRB1 signaling pathway.

Experiment [4] can be described thus: Neurotransmitter content (ELISA) and TH phosphorylation (western blot) in IMQ-treated mice. It counts as in vivo.
The subject of another experiment is β1-AR. The experiment in a line: Proportion of β1-AR+ T cells in skin of IMQ-treated mice (immunofluorescence and flow cytometry). It counts as in vivo. An excerpt: In the embodiment of the disclosure, immunofluorescence and flow cytometry are used to detect β1-AR is mainly expressed in IL-17A-producing γδT cells (also referred to as γδT-17 cells), as shown in FIG. 14.

Experiment [5] deals with IMQ-induced mice. The experiment in a line: Psoriasis model with subcutaneous norepinephrine (NE) injection. Type of experiment: in vivo. Particulars: subcutaneous injection while IMQ is smeared. Here is the method:
In the embodiment of the disclosure, the construction of psoriasis model injected with norepinephrine (NE) is as follows. 6 μL of norepinephrine storage solution (10 millimoles per liter, abbreviated mM) is dissolved into 100 μL of 1 xphosphate-buffered saline (also referred to as 1×PBS, specifically prepared by a commonly used 1× phosphate buffered saline recipe), and […] NE diluent is prepared. Wild-type mice aged 7-8 weeks are selected to shave their back hair, and the exposed skin area is 2 cm×2 cm. Then, the mice are subcutaneously injected with 100 μL NE diluent, and controls are injected with an injecting control agent (6 μL dimethyl sulfoxide, abbreviated DMSO+100 μL PBS).

For a further experiment, the system named is Dendritic cells (DCs). Conditions: cited from earlier work; for IL-17A induced by stimulated DCs / production of IFN-γ by CD4 cells: DCs in mice stimulated.
The mark [6] stands for this setting: psoriatic mice treated with IMQ vs control mice treated with VAS.

For `NCCc1cc(O)c(O)cc1O` [6-OHDA, 6-hydroxydopamine], in the experiment with skin sympathetic nerve, the “IL-17A+γδT cells in sympathetic denervated skin” value is reported as “decreased” and the “NE in sympathetic denervated skin” value is “decrease”. In addition, the “psoriasis-like phenotype of mice induced by IMQ” value in the experiment on skin sympathetic nerve (removal of skin sympathetic nerve) was “reduces”. Moreover, in experiment [1], the “IMQ induced ear swelling” value was “reduce” and the “production of IL-17” value is listed as “does not affect”.

For `CCCC(=O)Nc1ccc(OCC(O)CNC(C)C)c(C(C)=O)c1` (stereo not drawn) [ACE, acebutolol hydrochloride], the “proportion of γδT-17 cells in the skin” value with IMQ-induced mice [2] (IMQ-induced mice smeared with drug) was “reduced”. In the experiment with primary γδT cells, the “transcription of IL17A” value is given as “decreases” and the “transcription of IL17F” value is reported as “decreases”. In addition, in the experiment with NF-κB (P65), the “NF-κB (P65) phosphorylation” value is “inhibits”; the “activation of P38, ERK, JNK and AKT” value was “do not affect”. Besides, the “activation of NF-κB (phosphorylation) in the skin” value in the experiment with NF-κB is on record as “inhibition”.

Consider `CC(CCc1ccc(O)cc1)NCCc1ccc(O)c(O)c1` (stereo not drawn) [DOB, dobutamine hydrochloride], for which the “IL-17A production of γδT cells in the skin” value in the experiment with IMQ-induced mice [2] (IMQ-induced mice) is reported as “promotes”. The “back skin thickness, erythema, and scaling” value in the experiment on IMQ-induced mice [2] (IMQ-induced mice smeared with drug, compared with the control group) is recorded as “increased”. Also, in the experiment on IMQ-induced mice [2] (IMQ-induced mice, smeared on back skin, 100 μL of 2 mg/mL diluent, 4 consecutive days, compared with the control group), the psoriasis-like phenotype entry was “aggravated”. Moreover, the “IL-17 producing capacity αβT cells” value in experiment [3] is recorded as “no effect”. The “promoting effects on the psoriasis-like phenotype and inflammatory infiltration” value in experiment [3] (lack of γδT cells) is reported as “offset”. In addition, in the experiment with primary γδT cells, the “transcription of IL17A” value was “increase” and the “transcription of IL17F” value is “increase”. Also, in the experiment on NF-κB (P65), the “NF-κB (P65) phosphorylation” value is recorded as “significantly increases”; the “activation of P38, ERK, JNK and AKT” value is recorded as “do not affect”. Also, the “activation of NF-κB (phosphorylation) in the skin” value with NF-κB is recorded as “enhances”.

Regarding `CC(C)Cn1cnc2c(N)nc3ccccc3c21` [IMQ, imiquimod], in experiment [4] (setting [6]), the “NE content in both skin and serum” value is on record as “higher”; the “dopamine in skin and serum” value is listed as “no difference”. The “TH phosphorylation in mouse skin” value in [4] (western blot) was “significant up-regulation”. Besides, in the experiment on β1-AR (IMQ-treated vs VAS treated mice), the “proportion of β1-AR+ cells in γδT cells in the skin” value is listed as “significantly higher”. In addition, in the experiment with β1-AR (VAS-treated vs IMQ-treated mice), the “proportion of β1-AR+ cells in αβT cells in the skin” value is listed as “no significant difference”.

With `NC[C@H](O)c1ccc(O)c(O)c1` [NE, norepinephrine], the “proportion of IL-17A+γδT cells in the skin of mice” value in the experiment on IMQ-induced mice [5] is recorded as “increases”. Further, in the experiment with IMQ-induced mice [5] (4 days), the “psoriasis-like phenotype of mice induced by IMQ” value is “exacerbates”. In addition, in the experiment on Dendritic cells (DCs), the “IL-17A induced by stimulated DCs” value is on record as “induce” and the “production of IFN-γ by CD4 cells” value is “reducing”.

Take `CC(C)(C)NCC(O)c1ccc(O)c(CO)c1` (stereo not drawn) [salbutamol]: the “IL-23 production by DCs” value with Dendritic cells (DCs) (DCs from treated mice) is listed as “more”. In the experiment on Dendritic cells (DCs), the “IL-17A induced by stimulated DCs” value is recorded as “induce” and the “production of IFN-γ by CD4 cells” value is on record as “reducing”.
